Test results taken from US10144732B2 (BIOGEN MA INC., priority 2014, dated 2018).
Structures can show the parent of a compound that is named as a salt.

Molecular target: T1, Human ATX protein (Homo sapiens, UniProt Q13822)
T1 construct: made in house
Test: ATX biochemical assay (FRET, FS-3 substrate)
Settings: FRET assay, FS-3 2 μM, ATX 1.0 μg/mL, 30 minutes preincubation, 2 hours reaction at room temperature; read-out: IC50
Excerpt: ATX (Autotaxin) is a 125 KDa glycoprotein with lysophospholipase D (LPLD) activity that generates the bioactive lipid lysophosphatidic acid (LPA) from lysophosphatidylcholine (LPC). The ATX biochemical assay utilizes a FRET (fluorescence resonance energy transfer) technology platform. The fluorescence signal of FRET substrate FS-3 is quenched due to intra-molecular FRET of a fluorophore to a non-fluorescing quencher (Ferguson, C. G., et al., Org Lett. 2006 May 11; 8(10): 2023-2026, which is incorporated by reference in its entirety). ATX catalyzes the hydrolysis of the substrate which separates the dabsyl quencher from the fluorescein reporter, which becomes fluorescent. The reaction is monitored by a SpectraMax M5 (Molecular Devices, Sunnyvale, Calif.) with at excitation wavelength 485 nm and emission wavelength […].
Fatty acid free-BSA (Sigma A8806): 10 mg/mL in H2O, stored at 4° C.
2×ATX assay buffer: 100 mM Tris, 280 mM NaCl, 10 mM KCl, 2 mM CaCl2, 2 mM MgCl2, pH 7.4.
Human ATX protein: expressed and purified in house. Stored at −80° C.
Substrate FS-3 (Echelon, L-2000): 100 μg in 77.74 μL H2O (1 mM stock), stored at −20° C.
384-well flat bottom plates—Corning #3575.
Compound dilution—All compounds were provided at 10 mM in 100% DMSO. In the first well, 2 μL of 10 mM compound was added to 78 μL of DMSO (1:40 dilution). In subsequent wells 3-fold dilution (total 10 dilutions) were performed.
1×ATX assay buffer was made up with a final concentration of 1 mg/mL fatty acid free-BSA using 2×ATX assay buffer, 10 mg/ml fatty acid free-BSA and ddH2O.
[…]. The final concentration of ATX in the reaction as 1.0 μg/mL.
2 μL per well of compounds was transferred to provide the desired concentration. The plate was centrifuged, then incubated at room temperature for 30 minutes on the shaker.
FS-3 was diluted with 1×ATX assay buffer to a concentration of FS-3 of 10 μM (5×). Then, 10 μL was added per well to the assay plate. The final concentration of FS-3 in the reaction was 2 μM. The plate was centrifuged. The plate was kept shaking at room temperature for 2 hours. Because FS-3 substrate is light sensitive, plates were kept covered and protected from light.
Fluorescence was measured using SpectraMax M5 (excitation at 485 nm/emission at 538 nm, top read).

Row | SMILES | IC50
1 | O=C(C[C@H]1CC[C@@H](C(=O)O)CC1)N1CCc2c(C(F)(F)F)nn(Cc3ccc(Cl)s3)c2C1 [Example 5-25, cis-4-(2-(1-((5-Chlorothiophen-2-yl)methyl)-3-(trifluoromethyl)-4,5-dihydro-1H-pyrazolo[3,4-c]pyridin-6(7H)-yl)-2-oxoethyl)cyclohexanecarboxylic acid] | ≤ 100 nM
2 | COC(=O)C1CCN(CC(=O)N2CCc3c(C(F)(F)F)nn(Cc4ccc(F)cc4)c3C2)CC1 [Example 12-1, Methyl 1-(2-(1-(4-fluorobenzyl)-3-(trifluoromethyl)-4,5-dihydro-1H-pyrazolo[3,4-c]pyridin-6(7H)-yl)-2-oxoethyl)piperidine-4-carboxylate] | ≤ 100 nM
3 | O=C(O)C12CCC(C(=O)N3CCc4c(C(F)(F)F)nn(Cc5ccc(Cl)cc5F)c4C3)(CC1)C2 [Example 5-51] | ≤ 100 nM
4 | O=C(CC12CCC(C(=O)O)(CC1)CC2)N1CCc2c(C(F)(F)F)nn(Cc3ccc(F)cc3)c2C1 [Example 5-13, 4-(2-(1-(4-Fluorobenzyl)-3-(trifluoromethyl)-4,5-dihydro-1H-pyrazolo[3,4-c]pyridin-6(7H)-yl)-2-oxoethyl)bicyclo[2.2.2]octane-1-carboxylic acid] | ≤ 100 nM
5 | CC1CCN(CC(=O)N2CCc3c(C(F)(F)F)nn(Cc4ccc(Cl)cc4F)c3C2)CC1 [Example 12-13, 1-(1-(4-Chloro-2-fluorobenzyl)-3-(trifluoromethyl)-4,5-dihydro-1H-pyrazolo[3,4-c]pyridin-6(7H)-yl)-2-(4-methylpiperidin-1-yl)ethanone] | ≤ 100 nM
6 | O=C(CC1C2CC3CC1CC(C(=O)O)(C3)C2)N1CCc2c(C(F)(F)F)nn(Cc3ccc(Cl)cc3F)c2C1 (stereo not shown) [Example 5-54, 4-(2-(1-(4-Chloro-2-fluorobenzyl)-3-(trifluoromethyl)-4,5-dihydro-1H-pyrazolo[3,4-c]pyridin-6(7H)-yl)-2-oxoethyl) adamantancarboxylic acid] | ≤ 100 nM
7 | CC(C)(C)OC(=O)N1CCC(CC(=O)N2CCc3c(C(F)(F)F)nn(Cc4ccc(Cl)cc4F)c3C2)CC1C(F)(F)F (stereo not shown) [Example 8-7, tert-Butyl 4-(2-(1-(4-chloro-2-fluorobenzyl)-3-(trifluoromethyl)-4,5-dihydro-1H-pyrazolo[3,4-c]pyridin-6(7H)-yl)-2-oxoethyl)-2-(trifluoromethyl)piperidine-1-carboxylate] | ≤ 100 nM
8 | O=C(O)CCCC(=O)N1CCc2c(C(F)(F)F)nn(Cc3ccc(Cl)cc3F)c2C1 [Example 14-2, 5-(1-(4-Chloro-2-fluorobenzyl)-3-(trifluoromethyl)-4,5-dihydro-1H-pyrazolo[3,4-c]pyridin-6(7H)-yl)-5-oxopentanoic acid] | ≤ 100 nM
9 | CCOC(=O)[C@H]1CC[C@H](CC(=O)N2CCc3c(C4CC4)nn(Cc4ccc(F)cc4)c3C2)CC1 [Example 1-39, trans-Ethyl 4-(2-(3-cyclopropyl-1-(4-fluorobenzyl)-4,5-dihydro-1H-pyrazolo[3,4-c]pyridin-6(7H)-yl)-2-oxoethyl)cyclohexanecarboxylate] | ≤ 100 nM
10 | CC1(C)C(CC(=O)N2CCc3c(C(F)(F)F)nn(Cc4ccc(F)cc4)c3C2)CC1C(=O)O (mixture of isomers) [Example 6-15, 3-(2-(1-(4-Fluorobenzyl)-3-(trifluoromethyl)-4,5-dihydro-1H-pyrazolo[3,4-c]pyridin-6(7H)-yl)-2-oxoethyl)-2,2-dimethylcyclobutanecarboxylic acid] | ≤ 100 nM
11 | CCOC(=O)C1CCC(CC(=O)N2CCc3c(C(F)(F)F)nn(Cc4ccccc4)c3C2)CC1 (stereo not shown) [Example 1-13, Ethyl 4-(2-(1-benzyl-3-(trifluoromethyl)-4,5-dihydro-1H-pyrazolo[3,4-c]pyridin-6(7H)-yl)-2-oxoethyl)cyclohexanecarboxylate] | ≤ 100 nM
12 | O=C(CC1C2CC3CC1CC(C(=O)O)(C3)C2)N1CCc2c(C(F)(F)F)nn(Cc3ccc(F)cc3)c2C1 (stereo not shown) [Example 5-55] | ≤ 100 nM
13 | CC1CC(CC(=O)N2CCc3c(C(F)(F)F)nn(Cc4ccc(Cl)cc4F)c3C2)CCN1C (stereo not shown) [Example 10-2, 1-(1-(4-Chloro-2-fluorobenzyl)-3-(trifluoromethyl)-4,5-dihydro-1H-pyrazolo[3,4-c]pyridin-6(7H)-yl)-2-(1,2-dimethylpiperidin-4-yl)ethanone TFA salt] | ≤ 100 nM
14 | O=C(O)C1CCCN(CC(=O)N2CCc3c(C(F)(F)F)nn(Cc4ccc(F)cc4)c3C2)CC1 (stereo not shown) [Example 13-19, 1-(2-(1-(4-Fluorobenzyl)-3-(trifluoromethyl)-4,5-dihydro-1H-pyrazolo[3,4-c]pyridin-6(7H)-yl)-2-oxoethyl)azepane-4-carboxylic acid TFA salt] | ≤ 100 nM
15 | CC(C)(C)OC(=O)N1CCC(CC(=O)N2CCc3c(C(F)(F)F)nn(Cc4ccc(Cl)cc4F)c3C2)CC1(C)C (stereo not shown) [Example 8-6, tert-Butyl 4-(2-(1-(4-chloro-2-fluorobenzyl)-3-(trifluoromethyl)-4,5-dihydro-1H-pyrazolo[3,4-c]pyridin-6(7H)-yl)-2-oxoethyl)-2,2-dimethylpiperidine-1-carboxylate] | ≤ 100 nM
16 | CN1CCC(CC(=O)N2CCc3c(C(F)(F)F)nn(Cc4ccc(Cl)cc4F)c3C2)CC1 [Example 1-2, 1-(1-(4-Chloro-2-fluorobenzyl)-3-(trifluoromethyl)-4,5-dihydro-1H-pyrazolo[3,4-c]pyridin-6(7H)-yl)-2-(1-methylpiperidin-4-yl)ethanone] | ≤ 100 nM
17 | O=C(CN[C@H]1C[C@H](C(=O)O)C1)N1CCc2c(C(F)(F)F)nn(Cc3ccc(F)cc3)c2C1 [Example 13-29, trans-3-(2-(1-(4-Fluorobenzyl)-3-(trifluoromethyl)-4,5-dihydro-1H-pyrazolo[3,4-c]pyridin-6(7H)-yl)-2-oxoethylamino)cyclobutanecarboxylic acid TFA salt] | ≤ 100 nM
18 | O=C(O)C1CCCN(CC(=O)N2CCc3c(C(F)(F)F)nn(Cc4ccc(Cl)cc4F)c3C2)CC1 (stereo not shown) [Example 13-20, 1-(2-(1-(4-Chloro-2-fluorobenzyl)-3-(trifluoromethyl)-4,5-dihydro-1H-pyrazolo[3,4-c]pyridin-6(7H)-yl)-2-oxoethyl)azepane-4-carboxylic acid TFA salt] | ≤ 100 nM
19 | CN1CCCC(CC(=O)N2CCc3c(C(F)(F)F)nn(Cc4ccc(F)cc4)c3C2)C1 (stereo not shown) [Example 11-1, 1-(1-(4-Fluorobenzyl)-3-(trifluoromethyl)-4,5-dihydro-1H-pyrazolo[3,4-c]pyridin-6(7H)-yl)-2-(1-methylpiperidin-3-yl)ethanone formate] | ≤ 100 nM
20 | O=C(CCc1nnn[nH]1)N1CCc2c(C(F)(F)F)nn(Cc3ccc(F)cc3)c2C1 [Example 1-32, 1-(1-(4-Fluorobenzyl)-3-(trifluoromethyl)-4,5-dihydro-1H-pyrazolo[3,4-c]pyridin-6(7H)-yl)-3-(1H-tetrazol-5-yl)propan-1-one] | ≤ 100 nM
21 | O=C(O)C[C@H]1CC[C@H](CC(=O)N2CCc3c(C(F)(F)F)nn(Cc4ccc(F)cc4)c3C2)CC1 [Example 5-48, 2-(trans-4-(2-(1-(4-Fluorobenzyl)-3-(trifluoromethyl)-4,5-dihydro-1H-pyrazolo[3,4-c]pyridin-6(7H)-yl)-2-oxoethyl)cyclohexyl)acetic acid] | ≤ 100 nM
22 | O=C(C1CCn2cncc2C1)N1CCc2c(C(F)(F)F)nn(Cc3ccc(F)cc3)c2C1 (stereo not shown) [Example 1-20, (1-(4-Fluorobenzyl)-3-(trifluoromethyl)-4,5-dihydro-1H-pyrazolo[3,4-c]pyridin-6(7H)-yl)(5,6,7,8-tetrahydroimidazo[1,5-a]pyridin-7-yl)methanone] | > 10000 nM
23 | O=C(O)[C@@H]1CC(CC(=O)N2CCc3c(C(F)(F)F)nn(Cc4ccc(Cl)cc4F)c3C2)CN1 (stereo partly shown) [Example 9-8, (2s)-4-(2-(1-(4-Chloro-2-fluorobenzyl)-3-(trifluoromethyl)-4,5-dihydro-1H-pyrazolo[3,4-c]pyridin-6(7H)-yl)-2-oxoethyl)pyrrolidine-2-carboxylic acid TFA salt] | ≤ 100 nM
24 | O=C(C[C@H]1CC[C@@H](C(=O)O)CC1)N1CCc2c(C(F)(F)F)nn(Cc3ccc(Cl)cc3Cl)c2C1 [Example 7-8, cis-4-(2-(1-(2,4-dichlorobenzyl)-3-(trifluoromethyl)-4,5-dihydro-1H-pyrazolo[3,4-c]pyridin-6(7H)-yl)-2-oxoethyl)cyclohexanecarboxylic acid] | ≤ 100 nM
25 | O=C(CC1CC(N2CCOCC2)C1)N1CCc2c(C(F)(F)F)nn(Cc3ccc(F)cc3)c2C1 (stereo not shown) [Example 22-5, 1-(1-(4-Fluorobenzyl)-3-(trifluoromethyl)-4,5-dihydro-1H-pyrazolo[3,4-c]pyridin-6(7H)-yl)-2-(3-morpholinocyclobutyl)ethanone TFA salt] | ≤ 100 nM
